Here are results for three molecules from patent publication US20130210851A1, “Crystalline forms of a hexahydrofuro[3,4-c]quinoline derivative” (Boehringer Ingelheim International GmbH, priority 2011, published 2013).

Holding throughout (format): physicochemical
The nature of data set [1]: Solid state stability under harsh stress conditions. From the text:
Under all applied severe stress conditions only very low or minor decomposition (Σ</=about 6% degradation impurities measured as peak area percentage from HPLC-diagrams using a standard gradient technique) can be observed.

Data set [2] is described as follows: Solubility of the saturated solution in aqueous media. As to conditions: thermodynamic from solid, 48 h shaking at room temperature, read-out: solubility RT - values.
Data set [3] can be described thus: Hygroscopic behaviour, water sorption isotherms (DVS-1). As to conditions: 25° C.; for hygroscopicity (in words): sorption isotherms 10% to 90% r.h.; for uptake of water: up to 90% r.h. The method, then: To study the hygroscopic behaviour of this material, sorption isotherms are registered on a DVS-1 water sorption monitor from Surface Measurement Systems. Adsorption and desorption isotherms are performed at 25° C. with 10% r.h. step intervals ranging from 10% r.h. up to 90% r.h.

Data set [4] is described as follows: Intrinsic dissolution rate in aqueous media (rotating disc method). As to conditions: 37° C., 200 rpm. As to the method: The intrinsic dissolution rate of the crystalline hydrochloride salt form of (3R,9S)-4-isopropyl-7,7-dimethyl-3-(4-(trifluoromethyl)phenyl)-2′,3′,5′,6,6′,7,8,9-octahydro-3H-spiro[furo[3,4-c]quinoline-1,4′-pyran]-9-ol is determined in aqueous media covering a range of pH 1.1-7.4 using the rotating disc method which maintains a constant surface area. 5 mg drug substance is compressed to form a disc at 356.1 N for 60 s. These discs are mounted to specially designed sample holders which fit into a Sotax dissolution tester. The dissolution media (37° C.) are stirred at 200 rpm. Samples are automatically withdrawn every second minute from the dissolution vessel and assayed via UV spectrophotometry. The intrinsic dissolution rate expressed in μg/cm^2/min is calculated using the slope of the concentration versus time plot and from the linear portion of the slope of the dissolution curve, volume of dissolution medium (35 ml) and area (diameter: 2 mm) of the exposed disk.

Structures are written as SMILES. Entries after “also recorded” stand apart in the source; their conditions may differ. Read-outs that look alike come from different tables or passages of the source.

Regarding `CC(C)c1nc2c(c3c1[C@@H](c1ccc(C(F)(F)F)cc1)OC31CCOCC1)[C@@H](O)CC(C)(C)C2.Cl` [crystalline hydrochloride salt form, Hydrogen Chloride Salt of (3R,9S)-4-isopropyl-7,7-dimethyl-3-(4-(trifluoromethyl)phenyl)-2′,3′,5′,6,6′,7,8,9-octahydro-3H-spiro[furo[3,4-c]quinoline-1,4′-pyran]-9-ol], in data set [1] (all stress conditions: 24 hours at 105° C., 72 hours at 60° C. and 70% rel. humid., 24 hours in a Xenotester), the “decomposition, sum of degradation impurities (peak area percentage from HPLC)” value is no more than 6%. The “solid state stability (in words)” value in data set [1] (harsh stress conditions for solid state) is reported as “stable in the solid state”. Moreover, the solubility (commonly the dissolved amount per volume that the medium holds) at 48 h in data set [2] (McIlvaine buffer, aqueous buffer, McIlvaine pH 2.2, intrinsic pH 2.0) was 1600 µg/mL; in data set [2] (McIlvaine buffer, aqueous buffer, McIlvaine pH 3.0, intrinsic pH 3.0) it was 400 µg/mL; in data set [2] (McIlvaine buffer, aqueous buffer, McIlvaine pH 4.0, intrinsic pH 4.0), 90 µg/mL; in data set [2] (McIlvaine buffer, aqueous buffer, McIlvaine pH 4.5, intrinsic pH 4.6), 30 µg/mL; in data set [2] (McIlvaine buffer, aqueous buffer, McIlvaine pH 5.0, intrinsic pH 5.1) it was 3 µg/mL; in data set [2] (McIlvaine buffer, aqueous buffer, McIlvaine pH 6.0, intrinsic pH 6.2), less than 3 µg/mL. The solubility at 48 h in data set [2] (McIlvaine buffer, aqueous buffer, McIlvaine pH 6.8, intrinsic pH 7.0) was less than 3 µg/mL; in data set [2] (McIlvaine buffer, aqueous buffer, McIlvaine pH 7.4, intrinsic pH 7.7, determined by LC/MS) it was 0.26 µg/mL; in data set [2] (Sorensen buffer, aqueous buffer, Sorensen pH 10.0, intrinsic pH 9.6) it was less than 3 µg/mL; in data set [2] (acetate buffer, aqueous buffer, Acetate pH 3.0, intrinsic pH 3.0), 200 µg/mL; in data set [2] (acetate buffer, aqueous buffer, Acetate pH 4.0, intrinsic pH 4.2), 60 µg/mL; in data set [2] (acetate buffer, aqueous buffer, Acetate pH 5.0, intrinsic pH 5.3), 6 µg/mL. In addition, the solubility at 48 h in data set [2] (simulated gastric fluid, 0.01N HCl, intrinsic pH 1.9) is 1900 µg/mL; in data set [2] (simulated gastric fluid, 0.1N HCl, intrinsic pH 0.9), 4100 µg/mL; in data set [2] (FaSSIF (Fasted State Simulated Intestinal), intrinsic pH 6.5), 20 µg/mL; in data set [2] (FeSSIF (Fed State Simulated Intestinal), intrinsic pH 5.0), 30 µg/mL; in data set [2] (water, intrinsic pH 1.6) it was 3100 µg/mL. For the same molecule, in data set [3], the “hygroscopicity (in words)” value is reported as “not hygroscopic; also recorded: non-hygroscopic”. The dissolution rate was 230 μg/cm^2/min in data set [4] (0.1N HCl); 250 μg/cm^2/min in data set [4] (pH 2.2 (McIlvaine)); 60 μg/cm^2/min in data set [4] (pH 3.0 (McIlvaine)); 10 μg/cm^2/min in data set [4] (pH 4.0 (McIlvaine)); 10 μg/cm^2/min in data set [4] (pH 4.5 (McIlvaine)); 10 μg/cm^2/min in data set [4] (water).
In the case of `Br.CC(C)c1nc2c(c3c1[C@@H](c1ccc(C(F)(F)F)cc1)OC31CCOCC1)[C@@H](O)CC(C)(C)C2` [crystalline hydrobromide salt form, Hydrogen Bromide Salt of (3R,9S)-4-isopropyl-7,7-dimethyl-3-(4-(trifluoromethyl)phenyl)-2′,3′,5′,6,6′,7,8,9-octahydro-3H-spiro[furo[3,4-c]quinoline-1,4′-pyran]-9-ol], in data set [3], the “hygroscopicity (in words)” value is reported as “not hygroscopic” and the uptake of water entry is recorded as “about 0.9%”.
The like results for `CC(C)c1nc2c(c3c1[C@@H](c1ccc(C(F)(F)F)cc1)OC31CCOCC1)[C@@H](O)CC(C)(C)C2` [compound of formula (I), (3R,9S)-4-isopropyl-7,7-dimethyl-3-(4-(trifluoromethyl)phenyl)-2′,3′,5′,6,6′,7,8,9-octahydro-3H-spiro[furo[3,4-c]quinoline-1,4′-pyran]-9-ol] were, in that order, “not hygroscopic” and “about 0.2%”.
